Experimental data as given in paper PMC10510324, “A Biomimetic C-Terminal Extension Strategy for Photocaging Amidated Neuropeptides” (Journal of the American Chemical Society, 2023).

Assays:
[1] = cited from earlier work
Description: With the target NPP-caged peptides in hand, we examined their photochemical reactivity in cell-compatible aqueous solution (phosphate-buffered saline, pH 7.2). […] Collectively, they were consumed 25–40 ...

CCK2R = target: T1, CCK2R (Mus musculus, UniProt P56481); experiment: Whole-cell recording of membrane currents, PV interneurons of hippocampal CA1, acute brain slices; format: cell-based; conditions: antagonist 1 μM
T1 construct: from tissue; host or cells: acute mouse brain slices, PV interneurons of hippocampal CA1 (PvalbCre; Ai14 mice)
T1 sequence (P56481 1-453): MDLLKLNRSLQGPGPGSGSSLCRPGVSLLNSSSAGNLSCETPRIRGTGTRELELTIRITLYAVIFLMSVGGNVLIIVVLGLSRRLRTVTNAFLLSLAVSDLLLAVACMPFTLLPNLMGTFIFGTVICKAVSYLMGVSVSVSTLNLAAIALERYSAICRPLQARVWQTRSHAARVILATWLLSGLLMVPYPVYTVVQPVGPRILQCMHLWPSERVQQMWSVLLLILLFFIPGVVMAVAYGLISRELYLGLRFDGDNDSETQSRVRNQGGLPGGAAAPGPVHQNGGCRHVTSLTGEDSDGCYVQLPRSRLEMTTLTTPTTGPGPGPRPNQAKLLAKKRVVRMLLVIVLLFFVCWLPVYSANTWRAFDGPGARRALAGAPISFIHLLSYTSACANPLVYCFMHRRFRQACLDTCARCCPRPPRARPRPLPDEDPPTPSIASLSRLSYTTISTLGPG
Description: Photoactivatable neuropeptides are powerful tools that can drive studies into the mechanisms of endogenous receptor signaling in acute brain slices.[3],[8],[40] To determine if NPP-caged peptides are compatible with such experiments, we established electrophysiological assays for measuring the activation of GRPR, OTR, NK1R, and CCK2R in acute brain slices taken from transgenic mice. These assays involved whole cell recordings of membrane currents from genetically defined neurons located in different brain regions where endogenous receptor activation produces inward, excitatory currents that facilitate action potential firing. Neuropeptide receptor-expressing cells were identified for fluorescence-guided, targeted electrophysiological recordings using transgenic mice that contain transgenes encoding Cre-recombinase under a promotor that is specific to the cell of interest, as well as a Cre-dependent tdTomato fluorescent protein via the Ai14 (Rosa26-lsl-tdTomato) reporter strain. […]
(A) Average inward currents over time after bath application of GRP(14-27)-NPP (3 μM, n = 5 cells from 4 mice) or GRP(14-27) (300 nM, n = 5 from 4 mice), recorded from fluorescently labeled VIP interneurons in layer 1 of the motor cortex. Data are expressed as the mean ± SEM. […] Data are expressed as the mean ± SEM. […] Data are expressed as the mean ± SEM. […] Data are expressed as the mean ± SEM. […]

locus coeruleus = conditions: bath applied; cited from earlier work
Description: Although extracellular peptidases are known to limit peptide concentrations in the nervous system, how they shape the temporal dynamics of neuropeptide signaling in the brain is poorly understood. For example, rapid proteolysis by peptidases localized near peptide receptors might limit the peak concentration of peptide and thus the degree of receptor activation.

[2] = system: its receptors (GRP receptors); conditions: cited from earlier work
Description: This motif is associated with immature neuropeptides that are likely not intended for receptor binding. […] We therefore reasoned that inclusion of the entire C-terminal amidation sequence might be particularly effective at reducing binding affinity if incorporated into C-terminally caged peptides, especially due to the presence of bulky, positively charged amino acids found in the dibasic motif. To mimic the proneuropept ...

For `COc1ccc([N+](=O)[O-])c2c1CCN2C(=O)CC[C@H](N)C(=O)O` [MNI-glutamate, 4-Methoxy-7-nitroindolinyl-caged-L-glutamate], the quantum yield [1] is given as 0.065.

For `Cc1cccc(NC(=O)N[C@@H]2N=C(c3ccccc3)c3ccccc3N(CC(=O)c3ccccc3C)C2=O)c1` [YM022, (R)-N-[2,3-Dihydro-1-[2-(2-methylphenyl)-2-oxoethyl]-2-oxo-5-phenyl-1H-1,4-benzodiazepin-3-yl]-N'-(3-methylphenyl)-urea], the “block of light-evoked CCK(8S)-NPP current” value (CCK2R) was “strongly attenuated”.

In the case of enkephalin, the “increase of potency by peptidase inhibition” value (locus coeruleus) is given as 10 fold.

B1: progastrin-releasing peptide: prohormone of gastrin-releasing peptide, literature finding (protein, UniProt P07492 24-148, looked up)
pro-form: VPLPAGGGTVLTKMYPRGNHWAVGHLMGKKSTGESSSVSERGSLKQQLREYIRWEEAARNLLGLIEAKENRNHQPPQPKALGNQQPSWDSEDSSNFKDVGSKGKVGRLSAPGSQREGRNPQLNQQ
modifications: pro-form
notes: prohormone of gastrin-releasing peptide, literature finding
In the case of B1, the receptor binding [2] is listed as “does not bind”.
